Results: PubChem BioAssay (NCI)
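How tested: cells in 96-well plates exposed to compound for 48 hours at five concentrations. The concentration for full growth arrest is given as TGI.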

Experiments:
Test in all cases: growth of human tumour cells (NCI), 48 h
MDA-MB-435 = test system: MDA-MB-435
SNB-75 CNS = test system: SNB-75 CNS
MCF7 breast = test system: MCF7 breast
T-47D breast = test system: T-47D breast
MALME-3M melanoma = test system: MALME-3M melanoma
OVCAR-4 ovarian = test system: OVCAR-4 ovarian
BT-549 breast = test system: BT-549 breast
SR leukemia = test system: SR leukemia
MDA-MB-231 breast = test system: MDA-MB-231 breast
NCI-H522 lung = test system: NCI-H522 lung

| Structure (SMILES) | TGI (MDA-MB-435) | TGI (SNB-75 CNS) | TGI (MCF7 breast) | TGI (T-47D breast) | TGI (MALME-3M melanoma) | TGI (OVCAR-4 ovarian) | TGI (BT-549 breast) | TGI (SR leukemia) | TGI (MDA-MB-231 breast) | TGI (NCI-H522 lung) |
| --- | --- | --- | --- | --- | --- | --- | --- | --- | --- | --- |
| COc1ccc2nc3cc(Cl)ccc3c(Nc3ccccc3-c3ccccc3Nc3c4ccc(Cl)cc4nc4ccc(OC)cc34)c2c1 | > 100 µM | > 72 µM | > 100 µM | 75.4 µM | 68.6 µM | 81.6 µM | 42.2 µM | > 66.8 µM | > 100 µM | 32 µM |
| CCN(Cc1cc(Cl)cc(C)c1O)Cc1c(O)ccc2ccccc12 | 29.9 µM | 24.1 µM | 39.1 µM | 35.8 µM | 29.8 µM | 31.6 µM | 27.4 µM | 52.5 µM | 35.4 µM | 31.8 µM |
| O=CNC(Cc1cnc[nH]1)C(=O)O (stereo not given) | > 100 µM | > 100 µM | > 100 µM | > 100 µM | > 100 µM | > 100 µM | > 100 µM | > 100 µM | > 100 µM | > 100 µM |
